Tests used:
human prostate tissue = experiment: Staining of human prostate paraffin embedded tissue slices; details: 100 μM
Description: The binding and localization of compound 26 in prostate and prostate cancer tissue was studied. Human prostate paraffin embedded tissue slices were stained with 100 μM of compound 26 and dansyl amine.

PC-3 cells [1] = experiment: PC-3 cell growth inhibition assay (WST-8); assay type: cell-based; details: Homo sapiens, WST-8, 48 hours
Description: The effect of compound 2 was studied on the proliferation of human androgen independent prostate cancer (PC-3) cells, using a cell viability assay with WST-8. […].
PC-3 cells were added to the wells of a 96 well plate at 7500 cells per well in 100 uL of RPMI medium with 10% serum and allowed to plate down overnight. The medium was then removed and replaced with serum free medium containing the appropriate concentration of drug. DMSO concentration was kept below 1%. At this time WST-8 cell counting reagent was added to the control (T=0) wells and allowed to incubate for 2 hours and the absorbance was read at 450 nm to determine the starting number of cells per well. The plates were incubated for 48 hours, the medium was removed and the wells were washed with 100 uL of PBS. The PBS was removed that the wells were filled with 110 uL of serum free RPMI media containing the WST-8 reagent. After two hours of incubation, the plates absorbance was read at 450 nm and normalized to the control value.

human Nav1.2 = target: T1, human Nav1.2 (Homo sapiens, UniProt Q99250); experiment: hNav1.2 functional block, whole-cell patch clamp; assay type: cell-based
T1 construct: host or cells: HEK
T1 sequence (Q99250 whole entry): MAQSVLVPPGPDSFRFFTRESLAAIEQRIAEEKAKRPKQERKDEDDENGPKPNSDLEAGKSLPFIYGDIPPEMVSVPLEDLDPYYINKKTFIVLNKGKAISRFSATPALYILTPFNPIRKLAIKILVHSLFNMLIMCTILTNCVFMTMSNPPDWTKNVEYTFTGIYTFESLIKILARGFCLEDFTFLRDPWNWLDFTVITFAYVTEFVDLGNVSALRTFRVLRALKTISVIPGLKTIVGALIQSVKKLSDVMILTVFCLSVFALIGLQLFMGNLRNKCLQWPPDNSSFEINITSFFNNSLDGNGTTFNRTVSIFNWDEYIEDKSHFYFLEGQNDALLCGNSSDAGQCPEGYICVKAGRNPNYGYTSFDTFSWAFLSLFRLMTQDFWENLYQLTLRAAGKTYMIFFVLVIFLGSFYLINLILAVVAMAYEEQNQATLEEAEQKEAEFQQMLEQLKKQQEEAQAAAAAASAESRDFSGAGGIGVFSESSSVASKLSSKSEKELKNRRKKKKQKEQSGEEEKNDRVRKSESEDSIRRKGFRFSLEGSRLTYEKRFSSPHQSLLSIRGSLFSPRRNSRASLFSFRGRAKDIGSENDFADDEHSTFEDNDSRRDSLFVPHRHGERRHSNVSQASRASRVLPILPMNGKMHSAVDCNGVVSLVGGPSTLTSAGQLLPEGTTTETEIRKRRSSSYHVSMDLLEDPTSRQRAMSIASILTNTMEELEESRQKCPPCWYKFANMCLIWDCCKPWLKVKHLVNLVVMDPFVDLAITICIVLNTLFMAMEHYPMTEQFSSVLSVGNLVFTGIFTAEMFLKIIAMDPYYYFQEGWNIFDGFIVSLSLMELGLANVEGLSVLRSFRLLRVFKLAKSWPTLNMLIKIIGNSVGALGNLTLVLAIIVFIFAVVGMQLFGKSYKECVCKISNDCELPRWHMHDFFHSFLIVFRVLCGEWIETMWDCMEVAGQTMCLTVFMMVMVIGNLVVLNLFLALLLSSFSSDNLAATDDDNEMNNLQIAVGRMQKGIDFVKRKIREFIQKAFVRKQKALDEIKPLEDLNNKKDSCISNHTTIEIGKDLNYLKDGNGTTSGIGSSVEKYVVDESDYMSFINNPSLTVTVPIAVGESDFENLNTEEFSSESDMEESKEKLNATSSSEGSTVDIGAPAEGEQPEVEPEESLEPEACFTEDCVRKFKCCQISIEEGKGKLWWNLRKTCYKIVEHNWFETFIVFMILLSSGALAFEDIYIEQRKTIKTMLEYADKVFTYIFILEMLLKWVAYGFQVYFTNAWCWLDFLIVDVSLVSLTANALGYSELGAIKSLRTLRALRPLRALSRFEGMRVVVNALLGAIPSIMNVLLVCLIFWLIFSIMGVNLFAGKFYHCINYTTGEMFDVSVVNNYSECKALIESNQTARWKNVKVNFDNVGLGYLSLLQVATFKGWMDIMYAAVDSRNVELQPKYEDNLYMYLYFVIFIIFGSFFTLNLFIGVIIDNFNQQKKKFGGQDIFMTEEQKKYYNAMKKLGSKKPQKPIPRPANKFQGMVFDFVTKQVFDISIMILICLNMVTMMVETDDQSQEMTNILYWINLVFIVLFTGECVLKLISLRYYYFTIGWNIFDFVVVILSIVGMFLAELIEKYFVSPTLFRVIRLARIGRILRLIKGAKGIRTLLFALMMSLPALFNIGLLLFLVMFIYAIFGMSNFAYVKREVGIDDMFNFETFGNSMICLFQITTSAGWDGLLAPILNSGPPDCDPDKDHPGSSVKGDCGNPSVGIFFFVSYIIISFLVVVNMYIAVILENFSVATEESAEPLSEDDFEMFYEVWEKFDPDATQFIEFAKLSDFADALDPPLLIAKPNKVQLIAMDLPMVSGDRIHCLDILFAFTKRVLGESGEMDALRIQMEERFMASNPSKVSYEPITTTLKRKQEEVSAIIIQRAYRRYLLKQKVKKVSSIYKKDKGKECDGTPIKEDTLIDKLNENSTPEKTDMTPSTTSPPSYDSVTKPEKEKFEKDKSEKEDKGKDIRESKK
Description: Of the 20 analogs tested, six had [^3H]-BTX displacement characteristics much greater then that of phenyloin (Table 7), see Schemes 5, 6, 7 and 8 for the chemical synthesis and structure of the tested compounds. Compound 26, having the greatest [^3H]-BTX displacement at 86% ([…]), was further tested for VGSC functional blocking ability in HEK cells stably expressing Nav1.2 (Table 8).
In addition the functional blocking ability of 9 was tested after site two affinities was confirmed. The potential reason for this increased blocking ability stems from the dansyl addition in a hydrophobically receptive region of the binding site in the VGSC (Anderson, J. D., et al. Mol. Cancer. Ther. 2003, 2, 1149-1154; Lenkowski, P et al. Neuropharmacology, 2007, 52, 1044-1054). This enhanced potency could be due to the dansyl substituent interacting with L1465 and 11469, located in S6 of domain III in the binding site, which are believed to be the source of hydrophobic receptivity 17. The ability to inhibit VGSC currents is an important property and represents functional blocking. The ability of CDPNS to inhibit sodium channel currents was assessed at 10 and 100 μM against human Nav1.2 by patch clamp assay (FIG. 10).
Human embryonic kidney cells (HEK) cells stably expressing human Nav1.2 were a kind gift from Dr. H. A. Hartmann (University of Baltimore, Md., USA) and were grown in DMEM/F12 media (Invitrogen, Corp, CA, USA) supplemented with 10% fetal bovine serum, penicillin (100 U/ml), streptomycin (100 μg/ml) and G418 (500 μg/ml; Sigma, Mo., USA). Cells were grown in a humidified atmosphere of 5% CO2 and 95% air at 37° C.
Sodium currents were recorded using the whole-cell configuration of the patch clamp recording technique with an Axopatch 200 amplifier (Axon Instruments, Foster City, Calif.). All voltage protocols were applied using pCLAMP 9 software (Axon, USA) and a Digidata 1322A (Axon, USA). Currents were amplified and low pass filtered (2 kHz) and sampled at 33 kHz. Borosilicate glass pipettes were pulled using a Brown-Flaming puller (model P87, Sutter Instruments Co, Novato, Calif.) and heat polished to produce electrode resistances of 0.5-1.5 MΩ when filled with the following electrode solution (in mM); CsCl 130, MgCl2 1, MgATP 5, BAPTA 10, HEPES 5 (pH adjusted to 7.4 with CsOH). Cells were plated on glass coverslips and superfused with solution containing the following composition; (in mM) NaCl 130, KCl 4, CaCl2 1, MgCl2 5, HEPES 5, and glucose 5 (pH adjusted to 7.4 with NaOH).
Compound 26 was prepared as 100 mM stock solutions in dimethyl sulfoxide (DMSO) and diluted to desired concentration in perfusion solution. The maximum DMSO concentration used was 0.1% and had no effect on current amplitude. All experiments were performed at room temperature (20-22° C.). After establishing whole-cell, a minimum series resistance compensation of 75% was applied. Sodium currents were elicited by a depolarizing step from a holding potential of −100 mV to +10 mV for a duration of 25 ms at 15 s intervals. Compound 26 was applied after a 3 min control period and continued until a steady state current amplitude was observed. All data represent percentage mean block±standard error of the mean (S.E.M.).

PC-3 cells [2] = experiment: PC-3 MTT cell viability assay; assay type: cell-based; details: Homo sapiens, read-out: GI50 ± SEM (10 μM), DPH and JDA-3-135 previously determined
Source text: Following the determination that compound CDPNS inhibits the VGSCs that are present in androgen independent PC-3 cells, a 3-(4,5-Dimethylthiazol-2-yl)-2,5-diphenyltetrazolium bromide (MTT) cell viability assay was utilized to measure the ability of compound CDPNS to inhibit PC-3 cell growth via VGSC blockade. In this experiment data yielded from CDPNS was compared to previously determined DPH and JDA-3-135 antiproliferation data (Table 10).

site 2 of the VGSC = experiment: [3H]-BTX-B displacement assay at site 2; assay type: binding, rat; details: for % [3H]-BTX Inhibition (40 μM) / % [3H]-BTX Displacement (40 μm): rat brain synaptoneurosomes; for % [3H]-BTX Inhibition (40 μM): Table 9; for % [3H]-BTX Displacement (40 μm): Table 13
hNav1.2 = hNav1.2 (Homo sapiens, UniProt Q99250); details: whole-cell patch clamp, hNav1.2 expressing HEK cells; read-out: hNav1.2 electrophysiology IC50; cited from earlier work
Chain of hNav1.2 (Q99250 whole entry): as above

[3] = read-out: GI50 in PC3 prostate cancer cells

Compound | binding to human prostate tissue (microscopy) (human prostate tissue) | GI50 (PC-3 cells [1]; [3]) [µM] | GI50 (PC-3 cells [1]; read-out: PC3 GI50 (μg)) [µM] | % hNaV 1.2 Functional Block (10 μM) (human Nav1.2; Table 8) [%] | % hNaV 1.2 Functional Block (10 μM) (human Nav1.2; Table 8, listed as CDPNS) [%] | % hNaV 1.2 Functional Block (10 μM) (human Nav1.2; Table 9) [%] | % hNaV 1.2 Functional Block (10 μM) (human Nav1.2; Table 9, listed as CDPNS) [%] | GI50 (PC-3 cells [2]) [µM] | % [3H]-BTX Inhibition (40 μM) (site 2 of the VGSC) [%] | % [3H]-BTX Displacement (40 μm) (site 2 of the VGSC) [%] | [3H]-BTX-B Binding Data, Displacement % (site 2 of the VGSC; Screen at 40 μM, 2 replicates, referenced to Aconitine) [%] | IC50 (hNav1.2) [µM] | % Nav 1.2 Functional Block (10 μm) (human Nav1.2; 10 μm, Table 13) [%]
CN(C)c1cccc2c(S(=O)(=O)NCCCCCC3(c4cccc(Cl)c4)NC(=O)NC3=O)cccc12 (centres unmarked) [Compound 26, N-(5-(4-(3-chlorophenyl)-2,5-dioxoimidazolidin-4-yl)pentyl)-5-(dimethylamino)naphthalene-1-sulfonamide] | visible due to binding | 9.95 ± 0.07 | 9.95 ± 0.07 | 58.9±4.1 | 58.9±4.15 | 58.9 ± 4.1 | 58.9±4.1 | 36 | 86.4 | 86.4 | 86 |  | 
CCCCCCCC1(c2cccc(Cl)c2)NC(=O)NC1=O (centres unmarked) [JDA-3-135] |  | 18.97 ± 0.04 | 18.97 ± 0.04 | 30.5 ± 5.1 |  | 30.5 ± 5.1 |  | 18.6 ± 1.5 | 69.6 | 69.6 |  | 13.9 | 30.5 ± 5.1

Reference: patent US8816095B2, “Na channels, disease, and related assays and compositions” (Georgetown University, priority 2008, dated 2014)
